Laboratory results reported in PubChem BioAssay AID1918930 (Molecular Pharmacology Branch, DTP, NCI, 2023).
Values joined by “and” are separate entries in the source; they are usually repeats but may differ in a detail not shown here. Equal values may be shown once.

Tested on: 233499-124-R-J3-PDC complex spheroid viability, % test/control
Assay: Anticancer human tumor 233499-124-R-J3-PDC patient-derived colon adenocarcinoma cell line growth inhibition
Conditions: for IC50: curve of first compound; for viability, T/C: stronger effect = lower value
How it was run: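 Complex spheroids of tumor cells with HUVEC and human MSCs, exposed to iadademstat combined with other agents. Each agent tested in half-log steps from near clinical Cmax (else 10 microM top), DMSO ≤0.25%.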
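Further: spheroids exposed to agents for one week before readout.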

CC(C)CC(NC(=O)CNC(=O)c1cc(Cl)ccc1Cl)B1OC(=O)CC(CC(=O)O)(C(=O)O)O1 (stereo unspecified) + NC1CC1c1ccc(-c2cccc(O)c2)cc1
IC50 (second compound 0.1 µM): 4.93 nM
IC50 (second compound 0.316 µM): 5.3 nM
IC50 (second compound 1 µM): 4.23 nM
IC50 (second compound 3.16 µM): 4.65 nM
IC50 (second compound 10 µM): 3.64 nM
viability, T/C (second compound 0.1 µM, first compound 0.000316 µM): 114%
viability, T/C (second compound 0.1 µM, first compound 0.001 µM): 105%
viability, T/C (second compound 0.1 µM, first compound 0.00316 µM): 80.2%
viability, T/C (second compound 0.1 µM, first compound 0.01 µM): 1.61%
viability, T/C (second compound 0.1 µM, first compound 0.0316 µM): 0.06%
viability, T/C (second compound 0.1 µM, first compound 0.1 µM): 0.15%
viability, T/C (second compound 0.316 µM, first compound 0.000316 µM): 113%
viability, T/C (second compound 0.316 µM, first compound 0.001 µM): 109%
viability, T/C (second compound 0.316 µM, first compound 0.00316 µM): 88.4%
viability, T/C (second compound 0.316 µM, first compound 0.01 µM): 2.74%
viability, T/C (second compound 0.316 µM, first compound 0.0316 µM): 0.07%
viability, T/C (second compound 0.316 µM, first compound 0.1 µM): 0.16%
viability, T/C (second compound 1 µM, first compound 0.000316 µM): 104%
viability, T/C (second compound 1 µM, first compound 0.001 µM): 95.1%
viability, T/C (second compound 1 µM, first compound 0.00316 µM): 66.3%
viability, T/C (second compound 1 µM, first compound 0.01 µM): 1.28%
viability, T/C (second compound 1 µM, first compound 0.0316 µM): 0.13%
viability, T/C (second compound 1 µM, first compound 0.1 µM): 0.13%
viability, T/C (second compound 3.16 µM, first compound 0.000316 µM): 89.6%
viability, T/C (second compound 3.16 µM, first compound 0.001 µM): 88.1%
viability, T/C (second compound 3.16 µM, first compound 0.00316 µM): 73.8%
viability, T/C (second compound 3.16 µM, first compound 0.01 µM): 2.88%
viability, T/C (second compound 3.16 µM, first compound 0.0316 µM): 0.06%
viability, T/C (second compound 3.16 µM, first compound 0.1 µM): 0.12%
viability, T/C (second compound 10 µM, first compound 0.000316 µM): 70.4%
viability, T/C (second compound 10 µM, first compound 0.001 µM): 88.1%
viability, T/C (second compound 10 µM, first compound 0.00316 µM): 56.9%
viability, T/C (second compound 10 µM, first compound 0.01 µM): 0.89%
viability, T/C (second compound 10 µM, first compound 0.0316 µM): 0.15%
viability, T/C (second compound 10 µM, first compound 0.1 µM): 0.18%

CC1COCCN1c1cc(-c2ccnn2C)c2ccnc(-c3ccn[nH]3)c2n1 (stereo unspecified)
viability, T/C (compound 0.00316 µM): 91.4% and 59.2%
viability, T/C (compound 0.01 µM): 93.3% and 48.8%
viability, T/C (compound 0.0316 µM): 61.6% and 40.6%
viability, T/C (compound 0.1 µM): 34.6% and 38.1%
viability, T/C (compound 0.316 µM): 16.5% and 47.6%
viability, T/C (compound 1 µM): 31.2% and 97.3%

COc1cc(C2c3cc4c(cc3C(OC3OC5COC(C)OC5C(O)C3O)C3COC(=O)C23)OCO4)cc(OC)c1O (stereo unspecified) + NC1CC1c1ccc(-c2cccc(O)c2)cc1
IC50 (second compound 0.1 µM): 717 nM
IC50 (second compound 0.316 µM): 1690 nM
IC50 (second compound 1 µM): 1540 nM
IC50 (second compound 3.16 µM): 728 nM
IC50 (second compound 10 µM): 209 nM
viability, T/C (second compound 0.1 µM, first compound 0.00949 µM): 104%
viability, T/C (second compound 0.1 µM, first compound 0.03 µM): 101%
viability, T/C (second compound 0.1 µM, first compound 0.0949 µM): 86.5%
viability, T/C (second compound 0.1 µM, first compound 0.3 µM): 57%
viability, T/C (second compound 0.1 µM, first compound 0.949 µM): 51.9%
viability, T/C (second compound 0.1 µM, first compound 3 µM): 41.5%
viability, T/C (second compound 0.316 µM, first compound 0.00949 µM): 109%
viability, T/C (second compound 0.316 µM, first compound 0.03 µM): 113%
viability, T/C (second compound 0.316 µM, first compound 0.0949 µM): 94.8%
viability, T/C (second compound 0.316 µM, first compound 0.3 µM): 73.4%
viability, T/C (second compound 0.316 µM, first compound 0.949 µM): 51.5%
viability, T/C (second compound 0.316 µM, first compound 3 µM): 47.8%
viability, T/C (second compound 1 µM, first compound 0.00949 µM): 94.3%
viability, T/C (second compound 1 µM, first compound 0.03 µM): 82.1%
viability, T/C (second compound 1 µM, first compound 0.0949 µM): 73.3%
viability, T/C (second compound 1 µM, first compound 0.3 µM): 60.6%
viability, T/C (second compound 1 µM, first compound 0.949 µM): 53.7%
viability, T/C (second compound 1 µM, first compound 3 µM): 45.5%
viability, T/C (second compound 3.16 µM, first compound 0.00949 µM): 91.1%
viability, T/C (second compound 3.16 µM, first compound 0.03 µM): 86.2%
viability, T/C (second compound 3.16 µM, first compound 0.0949 µM): 73%
viability, T/C (second compound 3.16 µM, first compound 0.3 µM): 62.1%
viability, T/C (second compound 3.16 µM, first compound 0.949 µM): 42%
viability, T/C (second compound 3.16 µM, first compound 3 µM): 46.6%
viability, T/C (second compound 10 µM, first compound 0.00949 µM): 71.4%
viability, T/C (second compound 10 µM, first compound 0.03 µM): 72.4%
viability, T/C (second compound 10 µM, first compound 0.0949 µM): 63.1%
viability, T/C (second compound 10 µM, first compound 0.3 µM): 44%
viability, T/C (second compound 10 µM, first compound 0.949 µM): 46.5%
viability, T/C (second compound 10 µM, first compound 3 µM): 40.6%
